Source: patent US6479550B1, “α-sulfenimino acid derivatives” (priority 1999, dated 2002)

Columns and labels:
[1] = system: Plasmopara viticola; experiment: D-1: Action against Plasmopara viticola on vines (residual-protective and residual-curative action); type: in vivo; conditions: vine seedlings, spray mixture 0.02% active ingredient; evaluated after 6 days at 95-100% relative humidity and 20° C.
Procedure: D-1: Action against Plasmopara viticola on Vines a) Residual-protective Action
Vine seedlings are sprayed at the 4- to 5-leaf stage with a spray mixture (0.02% active ingredient) prepared from a wettable powder formulation of the test compound. After 24 hours, the treated plants are infected with a sporangia suspension of the fungus. Fungus infestation is evaluated after incubation for 6 days at 95-100% relative humidity and 20° C. […]
b) Residual-curative Action
Vine seedlings are infected at the 4- to 5-leaf stage with a sporangia suspension of the fungus. After incubation for 24 hours in a humidity chamber at 95-100% relative humidity and 20° C., the infected plants are dried and sprayed with a spray mixture (0.02% active ingredient) prepared from a wettable powder formulation of the test compound. After the spray coating has dried, the treated plants are placed in the humidity chamber again. Fungus infestation is evaluated 6 days after infection.

[2] = system: Phytophthora; experiment: D-2: Action against Phytophthora on tomato plants (residual-protective and systemic action); type: in vivo; conditions: spray mixture 0.02% active ingredient, sprayed or watered, evaluated 4-5 days after infection at 90-100% relative humidity and 20° C.
Procedure: D-2: Action Against Phytophthora on Tomato Plants
(§1) a) Residual-protective Action
(§2) After a cultivation period of 3 weeks, tomato plants are sprayed with a spray mixture (0.02% active ingredient) prepared from a wettable powder formulation of the test compound. After 48 hours, the treated plants are infected with a sporangia suspension of the fungus. Fungus infestation is evaluated after incubation of the infected plants for 5 days at 90-100% relative humidity and 20° C.
as §2, with “watered” for “sprayed”, “ingredient based on the volume of the soil)” for “ingredient)”, “compound. […]” for “compound.”, “96” for “48”, “4” for “5”

[3] = system: Phytophthora; experiment: D-3: Action against Phytophthora on potato plants (residual-protective and systemic action); type: in vivo; conditions: potato plants (Bintje variety), spray mixture 0.02% active ingredient, sprayed or watered; evaluated after 4 days at 90-100% relative humidity and 20° C.
Procedure: D-3: Action Against Phytophthora on Potato Plants
as §1
(§3) 2-3 week old potato plants (Bintje variety) are sprayed with a spray mixture (0.02% active ingredient) prepared from a wettable powder formulation of the test compound. After 48 hours, the treated plants are infected with a sporangia suspension of the fungus. Fungus infestation is evaluated after incubation of the infected plants for 4 days at 90-100% relative humidity and 20° C.
as §3, with “watered” for “sprayed”, “ingredient based on the volume of the soil)” for “ingredient)”, “compound. […]” for “compound.”

Structure (SMILES)	Fungus infestation (fungicidal action against Plasmopara viticola on vines) [1]	melting point	Fungus infestation (action against Phytophthora on tomato plants) [2]	Fungus infestation (fungicidal action against Phytophthora on potatoes) [3]
COc1ccc(CCNC(=O)C(=NSC)c2ccc(-c3ccc(C)cc3)cc2)cc1OC [Compound 11.171, 2-[4-(4-methyl-phenyl)-phenyl]-N-[2-(3,4-di-methoxy-phenyl)-ethyl]-2-methylthioimino-acetamide]	completely inhibit fungal infestation	40 to 47 °C	–	–
COc1ccc(CCNC(=O)C(=NSC)c2ccc(-c3ccc(C(C)(C)C)cc3)cc2)cc1OC [Compound 11.351, 2-[4-(4-tert.-butyl-phenyl)-phenyl]-N-[2-(3,4-di-methoxy-phenyl)-ethyl]-2-methylthioimino-acetamide]	completely inhibit fungal infestation	45 to 52 °C	–	–
C#CCOc1ccc(CCNC(=O)C(=NSC)c2ccc(Cl)cc2)cc1OC [Compound 14.001, 2-(4-chloro-phenyl)-N-[2-(3-methoxy-4-prop-2-ynyloxy-phenyl)-ethyl]-2-methylthioimino-acetamide]	completely inhibit fungal infestation	–	completely inhibit fungal infestation	completely inhibit fungal infestation
C#CCOc1ccc(CCNC(=O)C(=NSC)c2ccc(Cl)c(Cl)c2)cc1OC [Compound 14.011, 2-(3,4-dichloro-phenyl)-N-[2-(3-methoxy-4-prop-2-ynyloxy-phenyl)-ethyl]-2-methylthioimino-acetamide]	completely inhibit fungal infestation	–	completely inhibit fungal infestation	completely inhibit fungal infestation
C#CCOc1ccc(CCNC(=O)C(=NSC)c2ccc(Br)cc2)cc1OC [Compound 14.031, 2-(4-bromo-phenyl)-N-[2-(3-methoxy-4-prop-2-ynyloxy-phenyl)-ethyl]-2-methylthioimino-acetamide]	completely inhibit fungal infestation	–	completely inhibit fungal infestation	–
CC#COc1ccc(CCNC(=O)C(=NSC)c2ccc(C)cc2)cc1OC [Compound 14.041, N-[2-(3-methoxy-4-prop-ynyloxy-phenyl)-ethyl]-2-methylthioimino-2-(4-tolyl)-acetamide]	completely inhibit fungal infestation	–	completely inhibit fungal infestation	completely inhibit fungal infestation
C#CCOc1ccc(CCNC(=O)C(=NSC)c2ccc(OC)cc2)cc1OC [Compound 14.051, 2-(4-methoxy-phenyl)-N-[2-(3-methoxy-4-prop-2-ynyloxy-phenyl)-ethyl]-2-methylthioimino-acetamide]	completely inhibit fungal infestation	–	–	–
C#CCOc1ccc(CCNC(=O)C(=NSC)c2ccc(F)cc2)cc1OC [Compound 14.071, 2-(4-fluoro-phenyl)-N-[2-(3-methoxy-4-prop-2-ynyloxy-phenyl)-ethyl]-2-methylthioimino-acetamide]	completely inhibit fungal infestation	–	–	–
C#CCOc1ccc(CCNC(=O)C(=NSC)c2ccc3ccccc3c2)cc1OC [Compound 14.121, N-[2-(3-methoxy-4-prop-ynyloxy-phenyl)-ethyl]-2-naphthalen-2-yl-2-methylthioimino-2-acetamide]	completely inhibit fungal infestation	–	–	–
